Reference: patent publication US9783536B2, “Nitrogen-containing heterocyclic compound or salt thereof” (FUJIFILM Corporation, priority 2013, dated 2017)
Counter-ions that a name gives are not always drawn. Like-named read-outs stand apart in the source and are kept apart here.

Experiments:
human PI3Kα protein = biological target: T1, human PI3Kα protein (Homo sapiens, UniProt P42336); assay: PI3Kα enzyme assay (ADP-Glo); assay type: biochemical; details: read-out: PI3Kα enzyme inhibitory activity
T1 construct: purchased Carna Biosciences, Inc; host or cells: baculovirus expression system
In short: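 Biotinylated human PI3Kα (baculovirus-expressed, 4.5 nmol/L) pre-incubated 15 min with compound in Tris-HCl pH 7.5, MgCl2, BSA; reaction 60 min at 25° C with 50 μmol/L PIP2 and 100 μmol/L ATP final. ADP quantified by ADP-Glo luminescence; IC50 calculated.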

[1] = biological target: T2, GST fusion human ERK2 protein (Homo sapiens, UniProt P28482); assay: ERK2 enzyme assay (1); assay type: biochemical; details: read-out: ERK2 enzyme inhibitory activity (1)
T2 construct: purchased Carna Biosciences, Inc; host or cells: E. coli expression system
In short: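 Enzyme (2.5 nmol/L, E. coli-expressed) preincubated with compound 15 min at room temperature in HEPES/MgCl2/DTT/Brij35 buffer, pH 7.5; reaction with 4.25 μmol/L FL-Peptide 8 and 43.1 μmol/L ATP for 120 min at 25 °C. Phosphorylated peptide fraction quantified by mobility-shift separation after EDTA stop; IC50 calculated.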

[2] = 4.5 nmol/L PI3Kα, PIP2 50 μmol/L, ATP 100 μmol/L
[3] = 2.5 nmol/L ERK2, ATP 43.1 μmol/L

T2 sequence (P28482 whole entry, the tested form may be a part): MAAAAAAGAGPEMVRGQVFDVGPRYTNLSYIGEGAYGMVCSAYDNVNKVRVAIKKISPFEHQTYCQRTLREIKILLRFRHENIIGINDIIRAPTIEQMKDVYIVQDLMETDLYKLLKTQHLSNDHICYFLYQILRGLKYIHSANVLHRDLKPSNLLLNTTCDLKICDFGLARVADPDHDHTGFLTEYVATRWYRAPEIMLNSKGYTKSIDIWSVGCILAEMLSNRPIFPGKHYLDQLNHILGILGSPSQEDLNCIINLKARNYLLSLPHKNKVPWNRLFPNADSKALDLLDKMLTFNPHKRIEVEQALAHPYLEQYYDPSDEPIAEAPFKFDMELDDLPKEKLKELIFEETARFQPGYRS
T1 sequence (P42336 whole entry): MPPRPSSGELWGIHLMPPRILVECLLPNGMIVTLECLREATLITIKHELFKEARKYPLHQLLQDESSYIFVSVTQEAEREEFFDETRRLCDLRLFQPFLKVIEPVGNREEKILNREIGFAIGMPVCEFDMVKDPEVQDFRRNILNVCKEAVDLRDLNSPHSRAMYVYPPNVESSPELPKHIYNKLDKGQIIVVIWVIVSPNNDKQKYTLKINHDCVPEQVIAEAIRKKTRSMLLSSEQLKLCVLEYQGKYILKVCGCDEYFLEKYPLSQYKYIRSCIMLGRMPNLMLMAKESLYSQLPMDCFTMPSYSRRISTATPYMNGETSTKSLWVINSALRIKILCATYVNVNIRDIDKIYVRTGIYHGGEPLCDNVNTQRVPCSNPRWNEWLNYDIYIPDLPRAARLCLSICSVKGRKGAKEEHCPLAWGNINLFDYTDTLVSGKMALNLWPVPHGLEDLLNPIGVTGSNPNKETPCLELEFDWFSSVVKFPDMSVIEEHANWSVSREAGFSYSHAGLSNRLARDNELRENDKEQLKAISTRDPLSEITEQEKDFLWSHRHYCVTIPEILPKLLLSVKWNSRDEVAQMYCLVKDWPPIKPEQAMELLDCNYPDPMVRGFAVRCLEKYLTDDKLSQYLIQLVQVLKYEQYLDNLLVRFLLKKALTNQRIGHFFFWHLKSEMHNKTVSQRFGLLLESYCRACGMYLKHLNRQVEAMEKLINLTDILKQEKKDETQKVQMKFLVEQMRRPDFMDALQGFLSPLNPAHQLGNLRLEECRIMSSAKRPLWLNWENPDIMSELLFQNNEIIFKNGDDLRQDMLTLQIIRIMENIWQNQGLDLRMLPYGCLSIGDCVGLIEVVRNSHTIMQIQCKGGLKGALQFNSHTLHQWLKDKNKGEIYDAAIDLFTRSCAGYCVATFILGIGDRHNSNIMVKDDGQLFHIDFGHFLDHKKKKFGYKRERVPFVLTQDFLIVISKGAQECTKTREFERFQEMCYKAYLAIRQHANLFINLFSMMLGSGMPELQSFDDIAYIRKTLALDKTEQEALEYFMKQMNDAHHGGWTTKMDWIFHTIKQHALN
T1 sequence (P27986 whole entry partner): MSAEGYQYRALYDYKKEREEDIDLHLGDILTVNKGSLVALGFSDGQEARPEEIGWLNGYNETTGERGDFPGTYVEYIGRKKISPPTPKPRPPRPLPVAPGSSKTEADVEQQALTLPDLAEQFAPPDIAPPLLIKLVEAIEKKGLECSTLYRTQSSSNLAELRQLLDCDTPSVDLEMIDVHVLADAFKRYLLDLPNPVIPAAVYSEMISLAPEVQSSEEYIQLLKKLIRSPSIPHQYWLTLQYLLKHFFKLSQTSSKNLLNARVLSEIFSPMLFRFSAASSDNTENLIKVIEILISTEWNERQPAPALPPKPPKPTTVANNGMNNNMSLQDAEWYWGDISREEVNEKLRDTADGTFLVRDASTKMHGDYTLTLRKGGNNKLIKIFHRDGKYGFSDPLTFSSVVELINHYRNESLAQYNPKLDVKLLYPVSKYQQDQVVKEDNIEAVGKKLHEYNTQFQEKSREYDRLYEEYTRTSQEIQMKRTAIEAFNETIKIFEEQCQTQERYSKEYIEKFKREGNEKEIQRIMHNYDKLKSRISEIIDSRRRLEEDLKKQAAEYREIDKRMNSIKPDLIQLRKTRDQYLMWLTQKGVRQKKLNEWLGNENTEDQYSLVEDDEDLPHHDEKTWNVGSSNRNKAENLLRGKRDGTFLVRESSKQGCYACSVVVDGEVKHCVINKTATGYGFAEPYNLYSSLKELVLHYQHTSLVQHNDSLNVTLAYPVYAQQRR

IC50 (human PI3Kα protein)	IC50 ([1]; ERK2 enzyme assay (1))	IC50 (human PI3Kα protein; [2])	IC50 [1, 3]	SMILES
< 1000 nM	< 1000 nM			CC(=O)OCC(C)(C)c1cnnc(Nc2ccc3ncc(-c4cnn(CCCN5CCCC5)c4)cc3n2)c1 [Example 0404, 2-Methyl-2-(6-((7-(1-(3-(pyrrolidin-1-yl)propyl)-1H-pyrazol-4-yl)-1,5-naphthyridin-2-yl)amino)pyridazin-4-yl)propyl acetate]
< 1000 nM	< 1000 nM			CC(C)c1cnnc(Nc2ccc3ncc(-c4cnn(CCn5ccnc5)c4)cc3n2)c1 [Example 0380, 7-(1-(2-(1H-imidazol-1-yl)ethyl)-1H-pyrazol-4-yl)-N-(5-isopropylpyridazin-3-yl)-1,5-naphthyridine-2-amine]
< 1000 nM	< 1000 nM			CC(C)c1cnnc(Nc2ccc3ncc(-c4cnn(CCCN5CCCC(C#N)C5)c4)cc3n2)c1 (stereo not drawn) [Example 0379, 1-(3-(4-(6-((5-Isopropylpyridazin-3-yl)amino)-1,5-naphthyridin-3-yl)-1H-pyrazol-1-yl)propyl)piperidine-3-carbonitrile]
		1000 to 10000 nM	< 1000 nM	CN(c1cn[nH]c1)c1cnc2ccc(Nc3nnc(C4CCCC4)s3)nc2c1 [Example 0196, N^2-(5-cyclopentyl-1,3,4-thiadiazol-2-yl)-N^7-methyl-N^7-(1H-pyrazol-4-yl)-1,5-naphthyridine-2,7-diamine]
10000 to 50000 nM	< 1000 nM			c1nc2ccc(Nc3nnc(C4CCCC4)s3)nc2cc1C1CCNCC1 [Example 0332, 5-Cyclopentyl-N-(7-(piperidin-4-yl)-1,5-naphthyridin-2-yl)-1,3,4-thiadiazole-2-amine hydrochloride]
< 1000 nM	< 1000 nM			CC(C)c1nnc(Nc2ccc3nccc(-c4cncnc4)c3n2)s1 [Example 0278, 5-isopropyl-N-(8-(pyrimidin-5-yl)-1,5-naphthyridin-2-yl)-1,3,4-thiadiazole-2-amine]
< 1000 nM	< 1000 nM			CCC(C)(C)c1cnnc(Nc2ccc3ncc(-c4cnn(CCCN5CCCC5)c4)cc3n2)c1 [Example 0296]
10000 to 50000 nM	1000 to 10000 nM			COc1ccccc1Nc1cnc2ccc(Nc3nnc(C4CCCC4)s3)nc2c1 [Example 0219, N^2-(5-cyclopentyl-1,3,4-thiadiazol-2-yl)-N^7-(2-methoxyphenyl)-1,5-naphthyridine-2,7-diamine]
		< 1000 nM	< 1000 nM	O=S(=O)(Nc1ccccc1)c1nnc(Nc2ccc3ncc(-c4cnn(CCN5CCOCC5)c4)cc3n2)s1 [Example 0188, 5-((7-(1-(2-morpholinoethyl)-1H-pyrazol-4-yl)-1,5-naphthyridin-2-yl)amino)-N-phenyl-1,3,4-thiadiazole-2-sulfonamide sodium salt]
1000 to 10000 nM	< 1000 nM			c1nc2ccc(Nc3nnc(CN4CCOCC4)s3)nc2cc1-c1cnn(CCCN2CCCC2)c1 [Example 0255, 5-(morpholinomethyl)-N-(7-(1-(3-(pyrrolidin-1-yl)propyl)-1H-pyrazol-4-yl)-1,5-naphthyridin-2-yl)-1,3,4-thiadiazole-2-amine]
< 1000 nM	< 1000 nM			CC(C)c1nnc(Nc2ccc3nccc(-c4cnn(C)c4)c3n2)s1 [Example 0273]
		< 1000 nM	< 1000 nM	Cn1cc(-c2cnc3ccc(Nc4nnc(NS(C)(=O)=O)s4)nc3c2)cn1 [Example 0187, N-(5-((7-(1-methyl-1H-pyrazol-4-yl)-1,5-naphthyridin-2-yl)amino)-1,3,4-thiadiazol-2-yl)methane sulfonamide]
< 1000 nM	< 1000 nM			CC(C)c1nnc(Nc2ccc3nccc(-c4ccnnc4)c3n2)s1 [Example 0283]
1000 to 10000 nM	1000 to 10000 nM			Cc1cc(Nc2ccc3ncc(-c4cnn(C)c4)cc3n2)n[nH]1 [Example 0277, N-(5-methyl-1H-pyrazol-3-yl)-7-(1-methyl-1H-pyrazol-4-yl)-1,5-naphthyridine-2-amine]
		< 1000 nM	< 1000 nM	Cn1cc(-c2cnc3ccc(Nc4nnc(S(=O)(=O)NCc5ccccc5)s4)nc3c2)cn1 [Example 0192, N-benzyl-5-((7-(1-methyl-1H-pyrazol-4-yl)-1,5-naphthyridin-2-yl)amino)-1,3,4-thiadiazole-2-sulfonamide sodium salt]
< 1000 nM	< 1000 nM			CC(C)c1cnnc(Nc2ccc3ncc(-c4cnn(CCc5ccncc5)c4)cc3n2)c1 [Example 0377]
		< 1000 nM	< 1000 nM	CC(C)c1cnnc(Nc2ccc3ncc(-c4cnn(CCCN(C)C)c4)cc3n2)c1 [Example 0020, 7-(1-(3-(Dimethylamino)propyl)-1H-pyrazol-4-yl)-N-(5-isopropylpyridazin-3-yl)-1,5-naphthyridine-2-amine]
1000 to 10000 nM	< 1000 nM			COCCNc1cnc2ccc(Nc3nnc(C4CCCC4)s3)nc2c1 [Example 0308]
		1000 to 10000 nM	< 1000 nM	Cn1cc(-c2cnc3ccc(Nc4ncc(C5CCCC5)s4)nc3c2)cn1 [Example 0127]

IC50 (human PI3Kα protein)	IC50 ([1]; ERK2 enzyme assay (1))	IC50 (human PI3Kα protein; [2])	IC50 [1, 3]	SMILES
		< 1000 nM	< 1000 nM	O=C(c1ccc(Nc2cnc3ccc(Nc4nnc(C5CCCC5)s4)nc3c2)cn1)N1CCOCC1 [Example 0106]
		1000 to 10000 nM	< 1000 nM	CN1CCN(c2cnc3ccc(Nc4nnc(C5CCCC5)s4)nc3c2)CCC1=O [Example 0064, 1-(6-((5-cyclopentyl-1,3,4-thiadiazol-2-yl)amino)-1,5-naphthyridin-3-yl)-4-methyl-1,4-diazepan-5-one hydrochloride]
		< 1000 nM	< 1000 nM	c1nnc(Nc2ccc3ncc(-c4cnn(CCN5CCOCC5)c4)cc3n2)s1 [Example 0002]
		1000 to 10000 nM	< 1000 nM	Cc1nnc(Nc2ccc3ncc(N(C)c4cn[nH]c4)cc3n2)s1 [Example 0183, N^7-methyl-N^2-(5-methyl-1,3,4-thiadiazol-2-yl)-N^7-(1H-pyrazol-4-yl)-1,5-naphthyridine-2,7-diamine]
< 1000 nM	< 1000 nM			Cn1cc(-c2cc3nc(Nc4nncs4)ccc3nc2N)cn1 [Example 0306, 7-(1-methyl-1H-pyrazol-4-yl)-N^2-(1,3,4-thiadiazol-2-yl)-1,5-naphthyridine-2,6-diamine]
		1000 to 10000 nM	1000 to 10000 nM	COc1ccc(-c2cnc3ccc(Nc4nccs4)nc3c2)cc1OC [Example 0023, N-(7-(3,4-dimethoxyphenyl)-1,5-naphthyridin-2-yl)thiazole-2-amine]
		1000 to 10000 nM	< 1000 nM	Cc1nnc(Nc2ccc3ncc(Nc4cn[nH]c4)cc3n2)s1 [Example 0182]
< 1000 nM	< 1000 nM			c1nc2ccc(Nc3nnc(CC4CCCC4)s3)nc2cc1-c1cnn(CCCN2CCCC2)c1 [Example 0234]
< 1000 nM	< 1000 nM			COc1ccccc1-c1ccnc2ccc(Nc3nnc(C(C)C)s3)nc12 [Example 0270]
1000 to 10000 nM	< 1000 nM			CC(C)c1nnc(Nc2ccc3nccc(-c4ccccc4)c3n2)s1 [Example 0264, 5-isopropyl-N-(8-phenyl-1,5-naphthyridin-2-yl)-1,3,4-thiadiazole-2-amine]
< 1000 nM	< 1000 nM			CC(O)c1nnc(Nc2ccc3ncc(-c4cnn(CCCN5CCCC5)c4)cc3n2)s1 (stereo not drawn) [Example 0259]
1000 to 10000 nM	< 1000 nM			c1cc(Nc2cnc3ccc(Nc4nnc(C5CCCC5)s4)nc3c2)no1 [Example 0315, N^2-(5-cyclopentyl-1,3,4-thiadiazol-2-yl)-N^7-(isoxazol-3-yl)-1,5-naphthyridine-2,7-diamine]
< 1000 nM	< 1000 nM			c1nnc(Nc2ccc3ncc(-c4cnn(CCCN5CCNCC5)c4)cc3n2)s1 [Example 0305, N-(7-(1-(3-(piperazin-1-yl)propyl)-1H-pyrazol-4-yl)-1,5-naphthyridin-2-yl)-1,3,4-thiadiazole-2-amine hydrochloride]
< 1000 nM	< 1000 nM			CC(C)c1nnc(Nc2ccc3nccc(-c4cccnc4)c3n2)s1 [Example 0268, 5-isopropyl-N-(8-(pyridin-3-yl)-1,5-naphthyridin-2-yl)-1,3,4-thiadiazole-2-amine]
		1000 to 10000 nM	< 1000 nM	c1nnc(Nc2ccc3ncc(N4CCOCC4)cc3n2)s1 [Example 0003, N-(7-morpholino-1,5-naphthyridin-2-yl)-1,3,4-thiadiazole-2-amine]
		< 1000 nM	< 1000 nM	CC(C)Cc1cnc(Nc2ccc3ncc(-c4cnn(CCCN5CCCC5)c4)cc3n2)s1 [Example 0144]
< 1000 nM	< 1000 nM			c1nc2ccc(Nc3nnc(CC4CC4)s3)nc2cc1-c1cnn(CCCN2CCCC2)c1 [Example 0256, 5-(Cyclopropylmethyl)-N-(7-(1-(3-(pyrrolidin-1-yl)propyl)-1H-pyrazol-4-yl)-1,5-naphthyridin-2-yl)-1,3,4-thiadiazole-2-amine]
		< 1000 nM	< 1000 nM	Cc1nn(CCCN2CCCC2)cc1-c1cnc2ccc(Nc3cc(C(C)C)cnn3)nc2c1 [Example 0156, N-(5-isopropylpyridazin-3-yl)-7-(3-methyl-1-(3-(pyrrolidin-1-yl)propyl)-1H-pyrazol-4-yl)-1,5-naphthyridine-2-amine]
		< 1000 nM	< 1000 nM	c1ncc(OCCN2CCCC2)cc1Nc1cnc2ccc(Nc3nnc(C4CCCC4)s3)nc2c1 [Example 0083]

SMILES	IC50 (human PI3Kα protein)	IC50 ([1]; ERK2 enzyme assay (1))	IC50 (human PI3Kα protein; [2])	IC50 [1, 3]
Cn1cc(-c2cnc3ccc(Nc4cc[nH]n4)nc3c2)cn1 [Example 0033, 7-(1-methyl-1H-pyrazol-4-yl)-N-(1H-pyrazol-3-yl)-1,5-naphthyridine-2-aminetrifluoroacetate]			1000 to 10000 nM	1000 to 10000 nM
